Experimental data taken from patent publication EP1106702A1, “High-throughput screening of compounds using electrospray ionization mass spectrometry (ESI-MS)” (AGOURON PHARMACEUTICALS, INC., priority 1999, dated 2001).
One block for each compound: values may come before it.

Experiments:
6:7 duplex [1] = assay: ESI-MS monitoring of non-covalent small molecule:oligonucleotide complexes with DNA duplex; format: binding; conditions: for ammonium acetate concentration tolerated with binding/complex stable: ammonium acetate varied from 10 mM to 250 mM; for relative binding affinity to 6:7 duplex: 10 mM ammonium acetate
Protocol: Regarding buffer concentration, the concentrations of ammonium acetate were varied to determine the effects of ionic strength on ligand binding. […] Of the intercalators, proflavin tolerated over 100 mM ammonium acetate with minimal shifting in binding. However, ethidium bromide and methyl green had almost 70% reduction in binding to DNA at only 33 mM ammonium acetate. The reduction in binding of ethidium bromide and methyl green at high salt concentrations is evidence of the electrostatic nature of the first step in binding in the intercalation of these compounds. Proflavin, which is […] at the test pH, should be less affected by an increase in competing counterions.
The general protocol for preparing the samples utilized in the present invention is as follows. Complementary single-stranded oligonucleotides are desalted, preferably via ammonium acetate precipitation. This DNA desalting procedure involves the following steps. First, the oligonucleotide is dissolved in approximately 100 µL of water. Next, about 500 µL of 10 M ammonium acetate is added. The solution is mixed and allowed to rest for about 5 minutes. From about 600 to about […] of cold ethanol (EtOH) is added and the solution is set in dry ice for about 25 minutes. The solution is then centrifuged for about 20 minutes. The supernatant is removed and saved and the preceding steps are repeated once. Subsequently, 1 ml of a 90:10 solution of EtOH and water are added and the solution is centrifuged for 5 minutes. This step is then repeated twice. The solution is then dried and rehydrated. Finally, OD readings are taken at 260 nanometers to ensure a 1:500 dilution.
(§1) The complementary oligonucleotide strands and corresponding oligonucleotide duplex are not critical to the invention. The duplex may comprise a DNA:DNA duplex, an RNA:RNA duplex or a DNA:RNA duplex. The DNA strands utilized herein are described in detail below. Once desalted, the complementary oligonucleotide strands are added in equimolar mixture in 50 mM ammonium acetate to make a […] duplex stock solution. The duplex stock solution is placed in a 60° C water bath for 10 minutes and then slowly cooled to room temperature. Test solutions are made by adding test compound (dissolved in methanol (MeOH)) to stock solution in a 2:1 water:isopropyl alcohol. Final concentrations of test compound and duplex are preferably 10 µM each. For example, 20 µL of the stock duplex solution is added to 80 µL of a 2:1 solution of water and IPA for a final volume of 100 µL and a final concentration of 10 µM duplex. The test compound is then added to the solution for a final concentration of 10 µM as well. One may subsequently dilute the test solution to test a range of test compound concentrations, from as low as 0.3 µM up to 10 µM.
Once the appropriate samples and solutions are prepared, one may proceed with the ESI-MS procedure. The general protocol for manual analysis is as follows. First, a 50 µL sample of test solution (comprised of about 30 picomoles of test compound) is drawn into a 100 µL syringe and infused into an LCQ Decca ion trap mass spectrometer using ESI-MS source. The sample is directly infused at a rate of about 1.5 µL/min over a period of approximately 2 minutes. The spectra is then analyzed for the presence of bound test ligand. If the test ligand does bind, the sample is re-run at lower concentrations, from about 0.3 µM up to 1.0 µM. In order to ensure statistical accuracy, data are preferably summed, saved, and analyzed over a large numbers of scans, preferably 30 to 50 scans, more preferably 40 scans.
The oligonucleotides utilized in the examples herein were known to interact with a particular target(s) of interest. They were provided according to our specifications from TriLink (La Jolla, CA). […] When the duplex solution was analyzed by ESI-MS, it was possible to see at least three charge stages of the duplex as well as some charge states of the two single strands. […]

ss DNA = assay: ESI-MS monitoring of ligand binding to the single strands in the duplex mixture; conditions: 10 µM duplex 6:7 mixture, increasing ligand concentration
Protocol: as §1, with “For example, 20 µL of the stock duplex solution is added to 80 µL of a 2:1 solution of water and IPA for a final volume of 100 µL and a final concentration of 10 µM duplex. The test compound is then added to the solution for a final concentration of 10 µM as well. One may subsequently dilute the test solution to test a range of test compound concentrations, from as low as 0.3 µM up to 10 µM.” left out
Once the appropriate samples and solutions are prepared, one may proceed with the ESI-MS procedure. […] The spectra is then analyzed for the presence of bound test ligand. […] In order to ensure statistical accuracy, data are preferably summed, saved, and analyzed over a large numbers of scans, preferably 30 to 50 scans, more preferably 40 scans.
The oligonucleotides utilized in the examples herein were known to interact with a particular target(s) of interest. […] When the duplex solution was analyzed by ESI-MS, it was possible to see at least three charge stages of the duplex as well as some charge states of the two single strands. […]

E.coli DNA helicase II = E.coli DNA helicase II (Escherichia coli, UniProt P03018); conditions: intercalation into double-stranded DNA substrate; cited from earlier work
6:7 duplex [2] = assay: ESI-MS monitoring of non-covalent small molecule:oligonucleotide complexes with DNA duplex; format: binding; conditions: 10 µM duplex and 10 µM proflavin; FT-ICR mass spectrometer
[3] = 33 mM ammonium acetate, 10 µM 6:7 duplex and 10 µM sample
[4] = 10 µM 6:7 duplex and 10 µM sample

E.coli DNA helicase II, sequence (P03018 whole entry): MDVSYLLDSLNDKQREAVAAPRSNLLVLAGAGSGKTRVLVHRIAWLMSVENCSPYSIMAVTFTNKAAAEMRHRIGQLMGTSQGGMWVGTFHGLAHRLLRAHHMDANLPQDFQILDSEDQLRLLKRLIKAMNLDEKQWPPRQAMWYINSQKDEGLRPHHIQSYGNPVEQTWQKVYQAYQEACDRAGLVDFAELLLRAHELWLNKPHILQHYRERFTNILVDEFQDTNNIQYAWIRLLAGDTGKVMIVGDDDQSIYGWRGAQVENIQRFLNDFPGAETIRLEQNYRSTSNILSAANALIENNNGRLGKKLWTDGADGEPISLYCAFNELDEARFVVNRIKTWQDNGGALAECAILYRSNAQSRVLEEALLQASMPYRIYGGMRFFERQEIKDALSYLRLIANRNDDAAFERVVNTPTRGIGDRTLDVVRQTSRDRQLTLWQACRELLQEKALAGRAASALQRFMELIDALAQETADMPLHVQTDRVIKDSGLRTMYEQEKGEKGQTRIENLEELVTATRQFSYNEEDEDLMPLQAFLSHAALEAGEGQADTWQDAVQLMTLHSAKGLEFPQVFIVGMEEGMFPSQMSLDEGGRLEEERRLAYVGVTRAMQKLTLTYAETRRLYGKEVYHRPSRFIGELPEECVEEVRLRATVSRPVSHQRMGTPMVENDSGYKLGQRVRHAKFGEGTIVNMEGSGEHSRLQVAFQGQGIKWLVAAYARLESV

Compound: CN1CCN(c2ccc3[nH]c(-c4ccc5[nH]c(-c6ccc(O)cc6)nc5c4)nc3c2)CC1 [H33258, bis-benzamide]
relative amounts of the 1:1 H33258:DNA complex compared with the 2:1 H33258:DNA complex (6:7 duplex [1]; 33 mM ammonium acetate): shifted
change in binding (in words) (6:7 duplex [1]; [3]): appreciable reduction in binding
binding to single strand (ss DNA): ligand bound to ss DNA was observed in increasing quantities

Compound: Cn1cc(NC(=O)c2cc(NC(=O)c3cc(NC=O)cn3C)cn2C)cc1C(=O)NCCC(=N)N [distamycin A]
ammonium acetate concentration tolerated with binding/complex stable (6:7 duplex [1]; [4]): up to 100 mM
observation of ligand:DNA complex (6:7 duplex [1]; 500 mM ammonium acetate in solution): still observed (though at much reduced levels)

reduction in binding to DNA (6:7 duplex [1]; [3]): ~70%
Compound: CN(C)c1ccc(C(=C2C=CC(=[N+](C)C)C=C2)c2ccc([N+](C)(C)C)cc2)cc1.[Cl-].[Cl-] [methyl green]
relative binding affinity to 6:7 duplex (6:7 duplex [1]): methyl green > ethidium bromide > proflavin

Compound: O=C1c2c(O)ccc(O)c2C(=O)c2c(NCCNCCO)ccc(NCCNCCO)c21 [mitoxantrone]
effect on helicase II ATP hydrolysis and unwinding activity (E.coli DNA helicase II): inhibition of ATP hydrolysis and unwinding activity

Compound: Nc1ccc2cc3ccc(N)cc3nc2c1 [proflavin]
binding between intercalator and duplex (6:7 duplex [2]): binding between intercalator and duplex was observed
ammonium acetate concentration tolerated with binding/complex stable (6:7 duplex [1]; [4]): over 100 mM
relative binding affinity to 6:7 duplex (6:7 duplex [1]): methyl green > ethidium bromide > proflavin
